“Also recorded” adds a separate entry of the source. Read-outs that look alike come from different tables or passages of the source.

Test [1] concerns the target T1, SARS-CoV-2 RdRp (nsp12, nsp7 and nsp8) (Severe acute respiratory syndrome coronavirus 2, UniProt P0DTD1). In kind it is biochemical.
Test [2] deals with RdRp of SARS-CoV and/or SARS-CoV-2. In kind it is biochemical.
Test [3] addresses SARS-CoV RdRp (nsp12, nsp7 and nsp8) (Severe acute respiratory syndrome coronavirus, UniProt P0C6X7). It is filed as biochemical.
Test [4] concerns the target SARS-CoV-2 exonuclease complex (nsp14/nsp10) (Severe acute respiratory syndrome coronavirus 2, UniProt P0DTD1). Description: Inhibition of SARS-CoV-2 exonuclease, MALDI-TOF MS. In kind it is biochemical.
The target in test [5] is T1, SARS-CoV-2 RdRp (nsp12, nsp7 and nsp8). Particulars: kinetic studies of Gordon et al 2020a, b; RDV-TP with MERS-CoV and SARS-CoV-2 RdRps; cited from earlier work.
[6] abbreviates: 150 µM inhibitor, 30 nM nsp14/nsp10, 37° C., 15 min.
Setting [7] is: 10 µM inhibitor, 30 nM nsp14/nsp10, 37° C., 15 min.
The mark [8] stands for this setting: 30 µM inhibitor, 30 nM nsp14/nsp10, 37° C., 15 min.
The mark [9] stands for this setting: 100 µM inhibitor, 30 nM nsp14/nsp10, 37° C., 15 min.
Setting [10] is: 300 µM inhibitor, 30 nM nsp14/nsp10, 37° C., 15 min.

With `CC(Cn1cnc2c(N)ncnc21)OCP(=O)(O)OP(=O)(O)OP(=O)(O)O` (stereo in doubt) [TFV-DP, Tenofovir diphosphate], in test [1], the “termination of the polymerase reaction” value is on record as “obligate terminator for the RdRp”.

`O=c1ccn([C@@H]2O[C@H](COP(=O)(O)OP(=O)(O)OP(=O)(O)O)[C@@H](O)[C@H]2F)c(=O)[nH]1` [2′-F-dUTP, 2′-fluoro-2′-deoxyuridine-5′-triphosphate]: the “termination of the polymerase reaction (summary of the 11 tested)” value (shortened to “termination … (summary of the 11 tested)”) in test [2] was “did not terminate the polymerase reaction”. Moreover, in test [3], the incorporation efficiency result was “incorporated very efficiently”. Besides, in test [1], the “relative incorporation efficiency in equimolar combinations” value (“relative incorporation efficiency” below) is “incorporated far better than 2′-O-Me-UTP and dUTP”; the “termination of the polymerase reaction in equimolar combinations” value is recorded as “not terminators of the polymerase reaction”.

On to `N[C@@H]1[C@H](O)[C@@H](COP(=O)(O)OP(=O)(O)OP(=O)(O)O)O[C@H]1n1ccc(=O)[nH]c1=O` [2′-NH2-dUTP, 2′-amino-2′-deoxyuridine-5′-triphosphate], for which the “termination … (summary of the 11 tested)” value in test [2] is listed as “did not terminate the polymerase reaction”. For the same compound, in test [1], the “relative incorporation efficiency” value was “more efficiently incorporated than 2′-O-Me-UTP and dUTP”; the “termination of the polymerase reaction in equimolar combinations” value is “not terminators of the polymerase reaction”.

As to `CO[C@@H]1[C@H](O)[C@@H](COP(=O)(O)OP(=O)(O)OP(=O)(O)O)O[C@H]1n1ccc(=O)[nH]c1=O` [2′-OMe-UTP, 2′-O-methyluridine-5′-triphosphate], the “termination … (summary of the 11 tested)” value in test [2] is “incomplete or delayed termination”. Further, the “termination of the polymerase reaction” value in test [3] is “significant polymerase reaction termination”; in test [1] it was “significant termination after the first incorporation step”.

Consider `Cc1cn([C@H]2C[C@H](F)[C@@H](COP(=O)(O)OP(=O)(O)OP(=O)(O)O)O2)c(=O)[nH]c1=O` [3′-F-dTTP, 3′-fluoro-3′-deoxythymidine triphosphate], for which the “termination of the polymerase reaction” value is reported as “permanent terminators” in test [3] and “no further incorporation” in test [1]. The incorporation efficiency result in test [1] is given as “efficient substrates of the RdRp”.

Consider `Cc1cn([C@H]2C[C@H](N=[N+]=[N-])[C@@H](COP(=O)(O)OP(=O)(O)OP(=O)(O)O)O2)c(=O)[nH]c1=O` [3′-N3-dTTP, 3′-N3-3′-deoxythymidine triphosphate], for which the results for the “termination of the polymerase reaction” value in test [3] and in test [1] were “permanent terminators” and “no evidence of further incorporation”, respectively. For the same compound, the incorporation efficiency entry in test [1] was “incorporation efficiency was lower than for 2′-F,Me-UTP and 3′-F-dTTP”.

With `CO[C@H]1[C@@H](O)[C@H](n2ccc(=O)[nH]c2=O)O[C@@H]1COP(=O)(O)OP(=O)(O)OP(=O)(O)O` [3′-OMe-UTP, 3′-0-methyluridine-5′-triphosphate], the “termination … (summary of the 11 tested)” value in test [2] is “complete termination of the polymerase reaction”. Besides, in test [3], the incorporation efficiency result is listed as “lower incorporation efficiency” and the “termination of the polymerase reaction” value is listed as “obligate terminator”.

As for `Nc1nc(=O)n([C@@H]2CS[C@H](COP(=O)(O)OP(=O)(O)OP(=O)(O)O)O2)cc1F` [Ec-TP, Emtricitabine triphosphate], the incorporation efficiency entry in test [1] was “relatively poor incorporation”.

Take `COc1cc2c(cc1Cc1cccc(Cl)c1F)c(=O)c(C(=O)O)cn2[C@H](CO)C(C)C` [Elvitegravir]: the “inhibition of exonuclease activity” value in test [4] (concentration not stated for this compound (FIG. 59d)) is reported as “able to inhibit the exonuclease”.

As for `Nc1nc(O)c2ncn(COC(CO)COP(=O)(O)OP(=O)(O)OP(=O)(O)O)c2n1` (centres unmarked) [Gan-TP, Ganciclovir 5′-triphosphate], the “termination … (summary of the 11 tested)” value in test [2] is reported as “complete termination of the polymerase reaction”. In addition, the “termination of the polymerase reaction” value was “terminate the polymerase reaction” in test [3] and “complete termination; also recorded: better terminators than Ent-TP” in test [1].

As to `Nc1ccn([C@@H]2CS[C@H](COP(=O)(O)OP(=O)(O)OP(=O)(O)O)O2)c(=O)n1` [Lam-TP, Lamivudine triphosphate], the incorporation efficiency result in test [1] is “relatively poor incorporation”.

With `COC(=O)N[C@H](C(=O)N1CC2(CC2)C[C@H]1c1nc(-c2ccc3c(c2)C(F)(F)c2cc(-c4ccc5[nH]c([C@@H]6[C@H]7CC[C@H](C7)N6C(=O)[C@@H](NC(=O)OC)C(C)C)nc5c4)ccc2-3)c[nH]1)C(C)C` [Ledipasvir], the “inhibition of exonuclease activity” value in test [4] (setting [6]) was “able to inhibit the exonuclease”.

With `Cc1cccc(C)c1OCC(=O)N[C@@H](Cc1ccccc1)[C@@H](O)C[C@H](Cc1ccccc1)NC(=O)[C@H](C(C)C)N1CCCNC1=O` [Lopinavir], the “inhibition of exonuclease activity” value in test [4] (setting [7]) is recorded as “small inhibition of the exonuclease activity”; in test [4] (setting [8]), “fragmentation peaks are further reduced”; in test [4] (setting [9]), “fragmentation peaks are further reduced”; in test [4] (setting [10]), “complete inhibition of exonuclease activity”.

As for `COC(=O)N[C@H](C(=O)N1CCC[C@H]1C(=O)Nc1ccc([C@@H]2CC[C@@H](c3ccc(NC(=O)[C@@H]4CCCN4C(=O)[C@@H](NC(=O)OC)C(C)C)cc3)N2c2ccc(C(C)(C)C)cc2)cc1)C(C)C` [Ombitasvir], the “inhibition of exonuclease activity” value in test [4] (1 µM inhibitor, 30 nM nsp14/nsp10, 37° C., 15 min) is “shows inhibition of the exonuclease activity”; in test [4] (setting [7]), “significantly increased inhibition of exonuclease activity”; in test [4] (setting [6]), “able to inhibit the exonuclease”.

In the case of `COC(=O)N[C@H](C(=O)N1CCC[C@H]1c1nc2cc([C@H]3CC[C@H](c4cc5nc([C@@H]6CCCN6C(=O)[C@@H](NC(=O)OC)[C@@H](C)OC)[nH]c5cc4F)N3c3cc(F)c(N4CCC(c5ccc(F)cc5)CC4)c(F)c3)c(F)cc2[nH]1)[C@@H](C)OC` [Pibrentasvir], the “inhibition of exonuclease activity” value in test [4] (0.1 µM inhibitor, 30 nM nsp14/nsp10, 37° C., 15 min) is on record as “shows inhibition of the exonuclease activity”; in test [4] (setting [7]), “significantly increased inhibition of exonuclease activity”; in test [4] (setting [6]), “able to inhibit the exonuclease”.

Turning to `N#C[C@@]1(c2ccc3c(N)ncnn23)O[C@H](COP(=O)(O)OP(=O)(O)OP(=O)(O)O)[C@@H](O)[C@H]1O` [RDV-TP], the “incorporation efficiency relative to the natural nucleotide” value in test [5] is on record as “higher incorporation efficiency than ATP”.

Take `CC(C)c1nc(CN(C)C(=O)N[C@H](C(=O)N[C@@H](Cc2ccccc2)C[C@H](O)[C@H](Cc2ccccc2)NC(=O)OCc2cncs2)C(C)C)cs1` [Ritonavir]: the “inhibition of exonuclease activity” value in test [4] (setting [7]) was “shows inhibition of the exonuclease activity”; in test [4] (setting [8]), “fragmentation peaks are further reduced”; in test [4] (setting [9]), “fragmentation peaks are further reduced”; in test [4] (setting [10]), “complete inhibition of exonuclease activity”.

Consider `Cc1cn([C@H]2C=C[C@@H](COP(=O)(O)OP(=O)(O)OP(=O)(O)O)O2)c(=O)[nH]c1=O` [Sta-TP, Stavudine 5′-triphosphate], for which the “termination … (summary of the 11 tested)” value in test [2] is on record as “complete termination of the polymerase reaction”. In addition, in test [1], the incorporation efficiency result is “very efficiently incorporated”, the “termination of the polymerase reaction” value is recorded as “complete termination of the polymerase reaction” and the “termination of the polymerase reaction at 10-fold lower concentration” value is reported as “resulted in termination of the polymerase reaction”.

`O=c1ccn([C@@H]2O[C@H](COP(=O)(O)OP(=O)(O)OP(=O)(O)O)[C@@H](O)[C@H]2O)c(=O)[nH]1` [UTP]: the “termination of the polymerase reaction” value in test [3] is recorded as “primer extension by 2 UTPs occurred”.

Regarding `O=c1ccn([C@H]2C[C@H](O)[C@@H](COP(=O)(O)OP(=O)(O)OP(=O)(O)O)O2)c(=O)[nH]1` [dUTP], the “relative incorporation efficiency” value in test [1] (250 µM each nucleotide, equimolar combinations (FIG. 36)) is reported as “lower incorporation efficiency than the natural UTP”.

As to Cidofovir diphosphate [Cid-DP], the “termination … (summary of the 11 tested)” value in test [2] is reported as “incomplete or delayed termination”. In addition, the “termination of the polymerase reaction” value in test [3] was “terminate the polymerase reaction”. In test [1], the “termination of the polymerase reaction” value is on record as “delayed termination” and the “termination of the polymerase reaction at 10-fold lower concentration” value is “resulted in termination of the polymerase reaction”.

Regarding Sofosbuvir, in test [1] ([…], RDV-TP together with UTP), the “extension of the RNA template-loop-primer” value was “complete conversion”.

“biotin-16-aminoallyl-2′-deoxyuridine-5′-triphosphate [Biotin-dUTP]”: the “termination … (summary of the 11 tested)” value in test [2] is recorded as “complete termination of the polymerase reaction”. Besides, in test [1], the “relative incorporation efficiency” value is “lower incorporation efficiency than the natural UTP” and the “termination of the polymerase reaction” value is on record as “terminator of the polymerase reaction”.

“desthiobiotin-16-aminoallyl-uridine-5′-triphosphate [Desthio-UTP]”: in test [2], the “termination … (summary of the 11 tested)” value is reported as “did not terminate the polymerase reaction”. In addition, in test [1], the incorporation efficiency result is recorded as “incorporated” and the “termination of the polymerase reaction” value is on record as “does not terminate the polymerase reaction”.

Source of the values: patent publication US20230172961A1 (priority 2020, published 2023).
